Conditions: 99.6 kPa, Liquid; for kinematic viscosity: Capillary tube (Ostwald / Ubbelohde) method; for mass density: Vibrating tube method

CNC(C)=O [N-methylacetamide]
Conditions | kinematic viscosity [m2/s] | mass density [kg/m3]
308.15 K | 3.79e-06 | 945.85
313.15 K | 3.35e-06 | 941.63
318.15 K | 2.99e-06 | 937.44
323.15 K | 2.68e-06 | 933.24
328.15 K | 2.42e-06 | 929.07

Source: the NIST ThermoML archive (doi:10.1021/acs.jced.7b00494)
